Tests used:
[1] = test system: Mitomycin-induced toxicity (leukocyte depletion); assay: Leukocyte depletion induced by mitomycin C in mice; assay type: in vivo; conditions: mitomycin C 50 μg/mouse peritoneal for five days, alone or with isovaleryl L-carnitine 30 mg/mouse and/or β-glucan 10 mg/mouse; for No. leukocytes after 5 days: day 5; for No. leukocytes after 10 days: day 10; for No. leukocytes after 12 days: day 12
Method: (§1) In these tests a first group of mice received peritoneal injections of 50 μg/mouse of mitomycin C for five consecutive days. In addition to mitomycin, a second group of animals were also injected with isovaleryl L-carnitine alone (30 mg/mouse), a third group with β-glucan alone (10 mg/mouse) and a fourth group with a combination of the two compounds for five consecutive days. On the fifth, tenth and twelfth day following the start of treatment, the number of leukocytes present in the blood and the mortality rates of the animals were evaluated in both treated and control animals.

[2] = test system: human macrophages from bronchoalveolar lavage fluid; assay: Macrophage stimulation test (phagocytosis and intracellular killing); assay type: cell-based
Method: After filtration, centrifuging and gradient separation on Ficoll, the viability of the cells was evaluated with the trypan blue test. Phagocytosis and intracellular killing were calculated according to the method described by […]. Bacterial, 98:996, 1969).

[3] = test system: Mitomycin-induced toxicity (mortality); assay: Mortality induced by mitomycin C in mice; assay type: in vivo; conditions: for % animals surviving after 5 days / % animals surviving after 10 days / % animals surviving after 12 days (survival rate): mitomycin C 50 μg/mouse peritoneal for five days, alone or with isovaleryl L-carnitine 30 mg/mouse and/or β-glucan 10 mg/mouse; for % animals surviving after 5 days: day 5; for % animals surviving after 10 days: day 10; for % animals surviving after 12 days (survival rate): day 12
Method: Results of Tests Regarding the Immunostimulant and Protective Effect exerted against Mitomycin-induced Toxicity by the Combination of Isovaleryl L-carnitine and β-glucan
as §1

Row | SMILES | No. leukocytes after 5 days [1] | No. leukocytes after 10 days [1] | No. leukocytes after 12 days [1] | increase in intracellular killing [2] [%] | increase in phagocyte activity [2] [%] | % animals surviving after 5 days [3] [%] | % animals surviving after 10 days [3] [%] | % animals surviving after 12 days (survival rate) [3] [%] | mortality rate ([3]; mitomycin C alone 50 μg/mouse peritoneal for five days, twelfth day) [%]
1 | CC(C)CC(=O)O[C@H](CC(=O)[O-])C[N+](C)(C)C [Isovaleryl L-carnitine] | 5,750 ± 310 | 4,900 ± 220 | 3,100 ± 310 | 15 | 10 | 50 | 30 | 15 | –
2 | CO[C@@]12[C@H](COC(N)=O)C3=C(C(=O)C(C)=C(N)C3=O)N1C[C@@H]1N[C@@H]12 [Mitomycin C] | 5,400 ± 270 | 3,000 ± 220 | 1,100 ± 190 | – | – | 50 | 20 | 0 | 100

Reference: patent publication US20030017999A1, “Composition for the prevention and /or treatment of lipid metabolism disorders and allergic forms” (priority 2000, published 2003)
